Experimental findings from patent US6685617B1, “Inhibitors of α4β1 mediated cell adhesion” (Pharmacia & Upjohn Company, priority 1998, dated 2004) are described below.

Assay [1] addresses T1, α4β1 integrin (Jurkat T-cell adhesion to IL-1 stimulated endothelial cell monolayers) (Homo sapiens, UniProt P05556+P13612).
T1 construct: a T-cell line, Jurkat, known to express the α4β1 integrin; host or cells: Jurkat T-cell line
Put plainly: Jurkat-endothelial cell adhesion assay (Jurkat EC). The class given is cell-based. To be noted: Jurkat cells on IL-1 stimulated human umbilical vein endothelial cells; read-out: JK/EC (Jurkat EC Assay IC50 value range). The gist of the method:
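BCECF-AM-labelled Jurkat cells were mixed with compound, generally 100, 20, 5 and 1.25 μM, and added to HUVEC monolayers (passage ≤6) pre-stimulated 4 hr at 37° C with 0.1 ng/ml IL-1. After 5 min on ice and 20 min at 37° C, washed wells were read by fluorescence as % adhesion relative to no compound.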

The target of assay [2] is T2, α4β1 integrin (Jurkat cell adhesion to immobilized CS-1 derived peptide CLHPGEILDVPST) (Homo sapiens, UniProt P05556+P13612).
T2 construct: 100 μl of Jurkat cells (2.5×10^6 cells/ml) in DMEM plus BSA; host or cells: Jurkat T-cell line
The assay can be described thus: Jurkat-CS-1 assay. In kind it is cell-based. The note with it: Jurkat cells on CS-1 peptide coated plates; read-out: JK/CS-1 (Jurkat CS-1 Assay IC50 value range). The gist of the method:
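CS-1 peptide was SPDP-crosslinked onto HSA-coated plates and blocked with BSA. Jurkat cells (2.5×10^6 cells/ml) in DMEM/BSA were mixed with compound, generally at 100, 20, 5 and 1.25 μM, and allowed to adhere for 1 hr at 37° C. Bound cells were fixed, stained with toluidine blue and quantified by OD590.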

Structures are written as SMILES. Where a name gives a salt, the structure may show the parent alone.

T2 sequence (P13612 34-1032): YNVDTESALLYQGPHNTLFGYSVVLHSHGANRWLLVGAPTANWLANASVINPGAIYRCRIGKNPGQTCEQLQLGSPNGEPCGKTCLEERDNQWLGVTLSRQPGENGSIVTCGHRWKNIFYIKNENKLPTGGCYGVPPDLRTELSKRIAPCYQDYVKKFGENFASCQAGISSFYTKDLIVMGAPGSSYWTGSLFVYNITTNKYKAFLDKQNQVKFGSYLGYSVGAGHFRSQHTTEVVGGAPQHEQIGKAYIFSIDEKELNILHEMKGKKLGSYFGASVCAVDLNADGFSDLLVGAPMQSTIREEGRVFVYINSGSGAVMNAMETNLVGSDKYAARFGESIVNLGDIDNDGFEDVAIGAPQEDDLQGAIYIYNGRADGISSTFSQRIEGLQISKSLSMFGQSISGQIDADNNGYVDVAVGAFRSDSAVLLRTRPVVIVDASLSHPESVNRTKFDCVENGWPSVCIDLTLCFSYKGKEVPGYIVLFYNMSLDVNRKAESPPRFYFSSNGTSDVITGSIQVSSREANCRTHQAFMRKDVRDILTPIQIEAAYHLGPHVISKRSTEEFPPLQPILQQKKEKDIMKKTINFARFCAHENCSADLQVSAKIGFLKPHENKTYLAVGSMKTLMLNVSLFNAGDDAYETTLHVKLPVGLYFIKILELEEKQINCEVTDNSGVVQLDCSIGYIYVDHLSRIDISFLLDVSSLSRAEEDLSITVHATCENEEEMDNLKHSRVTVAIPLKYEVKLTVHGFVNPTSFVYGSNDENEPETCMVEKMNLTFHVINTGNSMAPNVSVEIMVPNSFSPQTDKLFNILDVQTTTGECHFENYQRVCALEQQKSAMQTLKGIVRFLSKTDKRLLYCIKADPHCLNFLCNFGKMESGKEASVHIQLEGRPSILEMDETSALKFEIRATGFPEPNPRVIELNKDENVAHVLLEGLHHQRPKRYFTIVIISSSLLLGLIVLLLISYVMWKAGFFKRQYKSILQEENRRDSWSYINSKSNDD
T2 sequence (P05556 21-798): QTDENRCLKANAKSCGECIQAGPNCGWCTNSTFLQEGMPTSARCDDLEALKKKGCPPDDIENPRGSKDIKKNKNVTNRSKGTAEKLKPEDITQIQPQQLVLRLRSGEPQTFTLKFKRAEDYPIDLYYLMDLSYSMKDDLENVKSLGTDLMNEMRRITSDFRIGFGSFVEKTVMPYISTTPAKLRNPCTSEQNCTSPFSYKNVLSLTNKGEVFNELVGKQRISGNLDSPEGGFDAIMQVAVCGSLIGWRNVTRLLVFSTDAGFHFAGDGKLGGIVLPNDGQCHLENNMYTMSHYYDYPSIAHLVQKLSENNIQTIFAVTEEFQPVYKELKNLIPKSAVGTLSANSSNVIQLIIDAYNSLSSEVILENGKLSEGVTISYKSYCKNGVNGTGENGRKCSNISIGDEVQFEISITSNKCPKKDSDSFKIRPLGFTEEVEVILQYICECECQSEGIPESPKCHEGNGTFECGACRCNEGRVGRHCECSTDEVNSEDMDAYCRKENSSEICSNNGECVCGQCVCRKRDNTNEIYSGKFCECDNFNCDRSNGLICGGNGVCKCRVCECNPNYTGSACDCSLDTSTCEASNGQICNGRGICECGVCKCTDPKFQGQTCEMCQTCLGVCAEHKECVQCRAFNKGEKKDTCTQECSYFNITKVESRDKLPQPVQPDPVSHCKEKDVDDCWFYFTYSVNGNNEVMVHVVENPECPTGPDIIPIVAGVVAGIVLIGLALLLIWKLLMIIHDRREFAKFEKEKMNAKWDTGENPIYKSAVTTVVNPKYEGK
T1 sequence (P13612 34-1032): as the sequence (P13612 34-1032) above
T1 sequence (P05556 21-798): as the sequence (P05556 21-798) above

For the molecule `CC(C)(C)OC(=O)N1CCSC[C@H]1C(=O)N[C@@H](Cc1ccc(NC(=O)c2c(Cl)cccc2Cl)cc1)C(=O)O` (relative stereo) [Example 100, [R-(R*,S*)]-3-[[[1-Carboxy-2-[4-[(2,6-dichlorobenzoyl)amino]phenyl]ethyl]amino]carbonyl]-4-thiomorpholinecarboxylic Acid 4-(1,1-Dimethylethyl)ester], the IC50 in assay [1] fell in the range of 250 to 1000 nM; in assay [2] it was 50 to 750 nM.

Turning to `COC(=O)[C@H](Cc1ccc(NC(=O)c2c(Cl)cccc2Cl)cc1)NC(=O)[C@H]1CSCN1C(=O)OCc1ccccn1` (relative stereo) [Example 148, [S-(R*,R*)]-4-[[[1-[[4-[(2,6-Dichlorobenzoyl)amino]phenyl]methyl]-2-methoxy-2-oxoethyl]amino]carbonyl]-3-thiazolidinecarboxylic Acid 3-(2-Pyridinylmethyl)ester], the IC50 was ≤ 250 nM in assay [1] and ≤ 50 nM in assay [2].

Take `O=C(Nc1ccc(C[C@H](NC(=O)[C@H]2CSCN2C(=O)OCc2ccccn2)C(=O)O)cc1)c1c(Cl)cccc1Cl` (relative stereo) [Example 149, [S-(R*,R*)]-4-[[[-Carboxy-2-[4-[(2,6-dichlorobenzoyl)amino]phenyl]ethyl]amino]carbonyl]-3-thiazolidinecarboxylic Acid 3-(2-pyridinylmethyl)ester]: the IC50 in assay [1] was ≤ 250 nM; in assay [2], ≤ 50 nM.

Consider `COC(=O)[C@H](Cc1ccc(NC(=O)c2c(Cl)cccc2Cl)cc1)NC(=O)[C@H]1CSCN1C(=O)CCCC(=O)O` (relative stereo) [Example 150, [S-(R*,R*)]-4-[[[1-[[4-[(2,6-Dichlorobenzoyl)amino]phenyl]methyl]-2-methoxy-2-oxoethyl]amino]carbonyl]-δ-oxo-3-thiazoidinepentanoic Acid], for which the IC50 was in the range of 250 to 1000 nM in assay [1] and 50 to 750 nM in assay [2].

Consider `COC(=O)CCCC(=O)N1CSC[C@@H]1C(=O)N[C@@H](Cc1ccc(NC(=O)c2c(Cl)cccc2Cl)cc1)C(=O)O` (relative stereo) [Example 151, [S-(R*,R*)]-4-[[[1-Carboxy-2-[4-[(2,6-dichlorobenzoyl)amino]phenyl]ethyl]amino]carbonyl]-δ-oxo-3-thiazoidinepentanoic Acid Methyl Ester], for which the results for the IC50 in assay [1] and in assay [2] were ≤ 250 nM and ≤ 50 nM, respectively.

Regarding `O=C(O)[C@H](Cc1ccc(OCc2c(Cl)cccc2Cl)cc1)NC(=O)[C@H]1CSCN1C(=O)OCCN1CCCCC1` (relative stereo) [Example 152, [S-(R*,R*)]-4-[[[1-Carboxy-2-[4-[(2,6-dichlorophenyl)methoxy]phenyl]ethyl]amino]carbonyl]-3-thiazolidinecarboxylic Acid 3-[2-(1-Piperidinyl)ethyl]ester], the IC50 was ≤ 250 nM in assay [1] and ≤ 50 nM in assay [2].

With `CCOC(=O)N1[C@@H](C(=O)N[C@@H](Cc2ccc(OCc3c(Cl)cccc3Cl)cc2)C(=O)O)CSC12CCN(C)CC2` (relative stereo) [Example 155, [S-(R*,R*)]-3-[[[1-Carboxy-2-[4-[(2,6-dichlorophenyl)methoxy]phenyl]ethyl]amino]carbonyl]-8-methyl-1-thia-4,8-diazaspiro[4.5]decane-4-carboxylic Acid 4-Ethyl Ester], the IC50 was ≥ 1000 nM in assay [1] and ≥ 750 nM in assay [2].

As to `O=C(O)CCC(=O)N1CCCCC[C@H]1C(=O)N[C@@H](Cc1ccc(NC(=O)c2c(Cl)cccc2Cl)cc1)C(=O)O` (relative stereo) [Example 157, [S-(R*,R*)]-2-[[[1-Carboxy-2-[4-[(2,6-dichlorobenzoyl)amino]phenyl]ethyl]amino]carbonyl]-hexahydro-γ-oxo-1H-azepine-1-butanoic Acid], the IC50 in assay [1] is ≤ 250 nM; in assay [2], 50 to 750 nM.

For `CCOC(=O)N1[C@@H](C(=O)N[C@@H](Cc2ccc(OCc3c(Cl)cccc3Cl)cc2)C(=O)O)CSC12CCCC2` (relative stereo) [Example 161, [S-(R*,R*)]-3-[[[1Carboxy-2-[4-[(2,6-dichlorophenyl)methoxy]phenylethyl]amino]carbonyl]-1-thia-4-azapiro[4.4]nonane-4-carboxylic Acid 4-Ethyl Ester], the IC50 in assay [1] was ≥ 1000 nM; in assay [2], ≥ 750 nM.

As for `CC(c1ccccc1)N1C(C(=O)O)CC1C(=O)NC(Cc1ccc(NC(=O)c2c(Cl)cccc2Cl)cc1)C(=O)O` (single isomer, unassigned) [Example 133], the IC50 in assay [1] is ≥ 1000 nM; in assay [2], ≥ 750 nM.

For `CC(c1ccccc1)N1C(C(=O)O)CC1C(=O)NC(Cc1ccc(NC(=O)c2c(Cl)cccc2Cl)cc1)C(=O)O` (single isomer, unassigned) [Example 139], the IC50 is ≥ 1000 nM in assay [1] and 50 to 750 nM in assay [2].

`COC(=O)[C@H](Cc1ccc(NC(=O)c2c(Cl)cccc2Cl)cc1)NC(=O)[C@@H]1CSCN1C(=O)OC(C)(C)C` (stereo in doubt) [Example 13, [R-(R*,S*)]-4-[[[1-[[4-[(2,6-Dichlorobenzoyl)amino]phenyl]methyl]-2-methoxy-2-oxoethyl]amino]carbonyl]-3-thiazolidinecarboxylic Acid 3-(1,1-Dimethylethyl)ester]: the IC50 in assay [1] is ≥ 1000 nM; in assay [2], ≥ 750 nM.

Take `CC(C)(C)OC(=O)N1CSC[C@H]1C(=O)N[C@@H](Cc1ccc(NC(=O)c2c(Cl)cccc2Cl)cc1)C(=O)O` (stereo in doubt) [Example 14, [R-(R*,S*)]-4-[[[1-Carboxy-2-[4-[(2,6-dichlorobenzoyl)amino]phenyl]ethyl]amino]carbonyl]-3-thiazolidinecarboxylic Acid 3-(1,1-Dimethylethyl)ester]: the IC50 in assay [1] lay within 250 to 1000 nM; in assay [2], 50 to 750 nM.

Regarding `COC(=O)[C@@H](Cc1ccc(NC(=O)c2c(Cl)cccc2Cl)cc1)NC(=O)[C@H]1CSCN1C(=O)OC(C)(C)C` (stereo in doubt) [Example 26, [S-(R*,S*)]-4-[[[1-[4-[(2,6-Dichlorobenzoyl)amino]phenyl]methyl]-2-methoxy-2-oxoethyl]amino]carbonyl]-3-thiazolidinecarboxylic Acid 3-1,1-Dimethylethyl)ester], the results for the IC50 in assay [1] and in assay [2] were ≥ 1000 nM and ≥ 750 nM, respectively.

Consider `CC(C)(C)OC(=O)N1CSC[C@@H]1C(=O)N[C@H](Cc1ccc(NC(=O)c2c(Cl)cccc2Cl)cc1)C(=O)O` (stereo in doubt) [Example 27, [S-(R*,S*)]-4-[[[1-Carboxy-2-[4-[(2,6-dichlorobenzoyl)amino]phenyl]ethyl]amino]carbonyl]-3-thiazolidinecarboxylic Acid 3-(1,1-Dimethylethyl)ester], for which the IC50 in assay [1] is ≥ 1000 nM; in assay [2], ≥ 750 nM.

As to `O=C(O)CCC(=O)N1CCSCC1C(=O)N[C@@H](Cc1ccc(OCc2c(Cl)cccc2Cl)cc1)C(=O)O` (stereo in doubt) [Example 105, [R-(R*,S*)]-3-[[[1-Carboxy-2-[4-[(2,6-dichlorophenyl)methoxy]phenyl]ethyl]amino]carbonyl]-γ-oxo-4-thiomorpholinebutanoic Acid], the IC50 was ≥ 1000 nM in assay [1] and 50 to 750 nM in assay [2].

With `COC(=O)[C@H](Cc1ccc(NC(=O)c2c(Cl)cccc2Cl)cc1)NC(=O)[C@H]1CSCN1S(C)(=O)=O` [Example 2, 4-[(2,6-Dichlorobenzoyl)amino]-N-[[(4S)-3-(methylsulfonyl)-4-thiazolidinyl]carbonyl]-L-phenylalanine Methyl Ester], the IC50 in assay [1] is ≤ 250 nM; in assay [2], 50 to 750 nM.

Turning to `CS(=O)(=O)N1CSC[C@@H]1C(=O)N[C@@H](Cc1ccc(NC(=O)c2c(Cl)cccc2Cl)cc1)C(=O)O` [Example 3, 4-[(2,6-Dichlorobenzoyl)amino]-N-[[(4S)-3-(methylsulfonyl)-4-thiazolidinyl]carbonyl]-L-phenylalanine], the IC50 in assay [1] is ≤ 250 nM; in assay [2], ≤ 50 nM.

On to `COC(=O)[C@H](Cc1ccc(NC(=O)c2c(Cl)cccc2Cl)cc1)NC(=O)[C@H]1CSCN1C(=O)NC(C)(C)C` [Example 6, 4-[(2,6-Dichlorobenzoyl)amino]-N-[[(4S)-3-[((1,1-dimethylethyl)amino)carbonyl]-4-thiazolidinyl]carbonyl]-L-phenylalanine Methyl Ester], for which the IC50 in assay [1] is ≥ 1000 nM; in assay [2] it was ≥ 750 nM.

Take `CCN(CC)C(=O)N1CSC[C@@H]1C(=O)N[C@@H](Cc1ccc(NC(=O)c2c(Cl)cccc2Cl)cc1)C(=O)OC` [Example 7, 4-[(2,6-Dichlorobenzoyl)amino]-N-[[(4S)-3-[(diethylamino)carbonyl]-4-thiazolidinyl]carbonyl]-L-phenylalanine Methyl Ester]: the IC50 was ≥ 1000 nM in assay [1] and 50 to 750 nM in assay [2].

Consider `O=C(Nc1ccc(C[C@H](NC(=O)[C@H]2CSCN2)C(=O)O)cc1)c1c(Cl)cccc1Cl` [Example 11, 4-[(2,6-Dichlorobenzoyl)amino]-N-[[(4S)-4-thiazolidinyl]carbonyl]-L-phenylalanine Monohydrochloride Salt], for which the results for the IC50 in assay [1] and in assay [2] were ≥ 1000 nM and 50 to 750 nM, respectively.

Take `CCS(=O)(=O)N1CSC[C@@H]1C(=O)N[C@@H](Cc1ccc(NC(=O)c2c(Cl)cccc2Cl)cc1)C(=O)OC` [Example 42]: the IC50 was 250 to 1000 nM in assay [1] and 50 to 750 nM in assay [2].

Take `CCS(=O)(=O)N1CSC[C@@H]1C(=O)N[C@@H](Cc1ccc(NC(=O)c2c(Cl)cccc2Cl)cc1)C(=O)O` [Example 43]: the IC50 in assay [1] was ≤ 250 nM; in assay [2] it was ≤ 50 nM.
